From US20230381142A1, “ANTILEISHMANIAL COMPOUNDS, COMPOSITIONS AND USE THEREOF” (TRUSTEES OF BOSTON UNIVERSITY, priority 2022, published 2023) come the findings set out here.

The test system of series [1] is L. donovani intracellular amastigotes infecting THP-1 cells. In words: High content intracellular amastigote assay in THP-1 cells (Assay Conditions B; CDIPD screen). Type of series: cell-based, Leishmania donovani. Conditions: Leishmania donovani; THP-1 host cells. A digest of the protocol:
(§1)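 THP-1 cells differentiated with 0.1 μM PMA for 48 h, then infected with stationary-phase promastigotes (L. major LV39 or L. donovani 1S/Cl2D) at 1:15 parasite-cell ratio. Compounds applied for 72 h at 37° C. Cells formaldehyde-fixed, DAPI-stained, imaged to count amastigotes and host cells.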

Series [2] concerns L. major (strain LV39) intracellular amastigotes infecting THP-1 cells. The series can be described thus: High content intracellular amastigote assay in THP-1 cells (Assay Conditions B). Type of series: cell-based, Leishmania major. As to conditions: Leishmania major; THP-1 host cells. The protocol: Assay Conditions B: THP-1 cells (human acute monocytic leukemia cell line—ATCC TIB202) were grown in RPMI supplemented with 10% Fetal Bovine Serum (FBS) and 50 μM 2-mercaptoethanol at 37° C. in 5% CO2. THP-1 were seeded in microwell plates at 5×10^5 cells/mL density and treated with 0.1 μM phorbol myristate acetate (PMA, Sigma) at 37° C. for 48 h for differentiation into adherent, non-dividing macrophages. After activation by PMA, cells were washed and incubated with complete RPMI medium containing stationary phase Leishmania promastigotes (L. major: strain LV39; L. donovani, strain 1S/Cl2D) at a 1:15 parasite-cell ratio. Compounds were added and incubated at 37° C. for 72 h. Cells were then washed with phosphate-buffered saline (PBS), fixed for 30 minutes with 4% formaldehyde, rinsed again with PBS, stained for 2 h with 4′,6′-diamidino-2-phenylindole (DAPI 300 nM) and finally washed with PBS. In a collaborative effort to identify new antileishmanial chemotypes with minimal host cell cytotoxicity, compounds from the Boston University Center for Molecular Discovery (BUCMD) screening collection were assessed in a phenotypic, high content primary screen at the University of California's Center for Discovery and Innovation in Parasitic Diseases (CDIPD) for the ability to inhibit growth of L. donovani intracellular amastigotes infecting THP-1 cells. […] Dose-response testing in L. donovani (both intracellular amastigotes and promastigotes) confirmed concentration-dependent growth inhibition of both morphologies of the parasite at low micromolar EC50 values for both compounds (Table 1).

The nature of series [3]: Host THP-1 cell cytotoxicity in the CDIPD high content screen. Type of series: cell-based, human. Conditions: human. A digest of the protocol: as §1
Series [4] has as its system L. donovani intracellular amastigotes in B10R cells. In words: UCSD L. donovani infection assay (Assay Conditions D). Type of series: cell-based. As to conditions: Leishmania donovani. The method, boiled down:
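B10R cells (300/well) infected with stationary-phase L. donovani WT promastigotes at 20 parasites/cell in DMEM high-glucose, 5% FBS, with compounds 72 h at 37° C., 5% CO2. Formaldehyde-fixed, DAPI-stained, imaged by high-content microscopy; 10-point 2-fold dilutions (screen at 10 μM) gave EC50 and host CC50.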

Series [5] in a line: Artificial membrane permeability (AMP). Type of series: in vitro ADME. As to conditions: PAMPA, pH 7.4. The method, boiled down: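 Passive permeation through 1.8% phosphatidylcholine in 1% decane membrane, 50 mM phosphate buffer pH 7.4 on donor and receiver sides. After 45 min pre-shaking, compounds incubated 3 h at room temperature with shaking, in duplicate; donor and receiver solutions quantified by LC/MS.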
A general note: The PAMPA barrier holds no transporters, so it reflects passive diffusion.

The target of another series is human serum albumin (Homo sapiens, UniProt P02768). The series can be described thus: Human serum albumin (HSA) binding, chromatographic. Type of series: in vitro ADME. The protocol:
The percentage of compound bound to human serum albumin was measured using a chromatographic method as described. Briefly, each compound was assayed on an immobilized HSA column and gradient retention times measured, with chromatographic peak detection by UV. Each retention time was then converted to a % HSA bound value using a calibration set of compounds with a known % HSA binding.

Series [6] is described as follows: Property forecast index (PFI = ChromLogD7.4 + aromatic rings). Type of series: physicochemical.

Chain of human serum albumin (P02768 25-609): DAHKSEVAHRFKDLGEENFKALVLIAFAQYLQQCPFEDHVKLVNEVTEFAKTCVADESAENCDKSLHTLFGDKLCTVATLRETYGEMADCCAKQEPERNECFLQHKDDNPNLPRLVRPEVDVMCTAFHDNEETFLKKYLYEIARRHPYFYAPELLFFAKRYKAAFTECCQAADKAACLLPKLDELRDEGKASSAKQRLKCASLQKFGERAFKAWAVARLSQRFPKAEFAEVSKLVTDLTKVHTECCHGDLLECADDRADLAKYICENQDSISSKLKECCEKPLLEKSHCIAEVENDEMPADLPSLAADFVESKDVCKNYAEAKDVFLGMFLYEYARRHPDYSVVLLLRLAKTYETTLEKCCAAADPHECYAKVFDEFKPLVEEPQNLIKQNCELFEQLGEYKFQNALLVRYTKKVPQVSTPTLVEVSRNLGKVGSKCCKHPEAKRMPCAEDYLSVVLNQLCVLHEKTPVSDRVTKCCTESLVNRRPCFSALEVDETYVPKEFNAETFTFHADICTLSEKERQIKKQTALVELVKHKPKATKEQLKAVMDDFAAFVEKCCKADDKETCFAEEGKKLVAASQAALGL

As for `COc1ccc(N2C(=O)c3[nH]nc(CC(C)C)c3C2c2ccc(F)cc2)cc1` (racemic) [Compound 1, 4-(4-fluorophenyl)-3-isobutyl-5-(4-methoxyphenyl)-4,5-dihydropyrrolo[3,4-c]pyrazol-6(1H)-one], the EC50 in series [1] worked out at 2.5 µM; in series [2], 1.3 µM; in series [4] (average of two biological replicates, read-out: L. donovani EC50 (UCSD assay)) it was 0.82 µM. This compound also came in with a CC50 at 72 h in series [3] greater than 20 µM. This compound yielded an IC50 in series [4] of 0.8 µM. Moreover, the Papp at 3 h in series [5] stood at 34.5 ×10⁻⁶ cm/s. Also, the “HSA Binding” value on human serum albumin was found to be 96.4%. The PFI in series [6] came to 8.4.
As for `COc1ccc(N2C(=O)c3[nH]nc(CC(C)C)c3C2c2ccccc2)cc1` (stereo not drawn) [Compound 2], the figures for the EC50 in series [1] and in series [2] were 3.7 µM and 1.7 µM, respectively. This compound also had a cytotoxic concentration (CC50) at 72 h in series [3] greater than 20 µM. In addition, the IC50 in series [4] turned out to be 1.1 µM. Moreover, in series [5], the apparent permeability coefficient (Papp) at 3 h was 37 ×10⁻⁶ cm/s. Further, the “HSA Binding” value at human serum albumin was found to be 95.8%. The PFI in series [6] was 8.4.

In general, EC50 refers to the concentration at which the effect is half-maximal. As a reminder, the CC50 is the concentration that lowers cell viability or growth by half. Read a low CC50 as greater toxicity to the cells. Broadly, the IC50 is the midpoint of a concentration-inhibition curve. Broadly, the Papp is a coefficient for how fast a substance crosses the barrier. A low value points to slow passage.
